Results published in patent publication US8153410B2, “Alternate morpheein forms of allosteric proteins as a target for the development of bioactive molecules” (Fox Chase Cancer Center, priority 2003, dated 2012).
Where two headings read alike, the source gives them in different places.

Target: T1, pea PBGS (Pisum sativum, UniProt P30124, C394A)
T1 construct: made in house
Test: native PAGE gel shift of pea PBGS octamer/hexamer equilibrium
Type: biochemical
Procedure: FIG. 32(a) The inhibitor morphlock-1 is illustrated as posed by Glide. The subunits A, B, and E are illustrated as ribbon diagram. Morphlock-1 is shown with carbon atoms and illustrated as ball and stick. FIG. 32(b) The chemical structure of morphlock-1. […] Pea PBGS was incubated with various concentrations of morphlock-1 (in a DMSO solution). Each concentration of morphlock-1 with a fixed amount of DMSO was incubated with protein for 30 minutes at 37° C. prior to resolution on 12.5% polyacrylamide native PhastGels. […] (d) The protein concentration dependence of pea PBGS specific activity is illustrated. PBGS (at varied concentrations) was incubated in the presence of DMSO (●) or 50 μM morphlock-1 in DMSO (∘) for 30 minutes at 37° C. prior to assay. The final concentration of morphlock-1 in the inhibited assay was 5 μM, and the concentration of PBGS in the inhibited and control assays ranged from 0.05-50 μg/mL (0.014-1.4 μM).
FIG. 34(b) Hexameric pea PBGS (1 mg/mL, prepared by dialysis against low ionic strength) was incubated with DMSO (left) or 500 μM morphlock-1 (right) for 30 minutes at 37° C. ALA was added at the indicated concentrations, and the incubation was continued for 30 minutes prior to resolution on 12.5% polyacrylamide native PhastGels. […] Morphlock-1 concentrations are listed at the top of each lane. Protein samples for left-most gel were at 50 μg/ml (1.4 μM subunit) and 1 mM ALA; protein detection is by silver staining. Samples for the middle gel were also at 50 μg/ml (1.4 μM subunit) and 1 mM ALA; the gel was activity stained. Samples for the right-most gel were at 5 μg/ml (0.14 μM subunit) and 10 mM magnesium; protein detection is by Krypton Infrared staining.
FIG. 41 illustrates native PAGE screening of compounds. Octameric PBGS (1 mg/mL) was incubated with DMSO or 2 mM of each compound for 30 minutes at 37° C. prior to resolution on 12.5% polyacrylamide native PhastGels. […] Each compound is identified by its box address. The compound B6 is morphlock-1.
The interconversion of pea PBGS hexamer and octamer is a dynamic equilibrium that responds to protein concentration, substrate concentration, magnesium concentration, inhibitor concentration, and ionic strength.

T1 sequence (P30124 69-398 C394A): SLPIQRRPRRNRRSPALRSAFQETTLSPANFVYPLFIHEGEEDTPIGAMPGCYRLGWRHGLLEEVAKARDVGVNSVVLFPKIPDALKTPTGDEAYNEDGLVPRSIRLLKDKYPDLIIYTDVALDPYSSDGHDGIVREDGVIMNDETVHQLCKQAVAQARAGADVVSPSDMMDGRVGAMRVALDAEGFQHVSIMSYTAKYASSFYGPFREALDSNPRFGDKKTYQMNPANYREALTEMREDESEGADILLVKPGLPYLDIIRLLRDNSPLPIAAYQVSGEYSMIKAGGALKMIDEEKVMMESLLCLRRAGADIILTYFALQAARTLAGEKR

**Q.** `O=C1Nc2ccc(S(=O)(=O)NCC(O)c3ccc([N+](=O)[O-])cc3)c3cccc1c23` (stereo not shown) [morphlock-1, 2-oxo-1,2-dihydro-benzo(cd)indole-6-sulfonic acid[2-hydroxy-2-(4-nitro-phenyl)-ethyl]-amide] was tested. Which IC50 (5 μg/ml pea PBGS and 10 mM magnesium, Krypton IR detection, read-out: apparent IC50, native PAGE) did it give?
**A.** Its IC50 is 1 to 3 µM.

**Q.** What about the IC50 (50 μg/ml (1.4 μM subunit) pea PBGS and 1 mM ALA, silver stain, read-out: apparent IC50, native PAGE) of the same molecule?
**A.** Its IC50 is roughly 100 µM.

**Q.** What about the “native PAGE screening: shift of oligomeric equilibrium” value (PBGS 1 mg/mL, 2 mM compound, 30 minutes at 37° C.) of the same molecule?
**A.** The value was “dramatically shift the oligomeric equilibrium to the hexamer”.

**Q.** What about the “hexamer converted to octamer by ALA in the presence of morphlock-1” value (hexameric pea PBGS 1 mg/mL, 2 mM morphlock-1, 5 mM ALA) of the same molecule?
**A.** The value was roughly 50%.

**Q.** What about the IC50 (non-equilibrium conditions, 1 mg/ml (~28 μM subunits) pea PBGS, read-out: observed IC50 in native PAGE analyses) of the same molecule?
**A.** Its IC50 is roughly 500 µM.

**Q.** What about the “effect on pea PBGS morpheein equilibrium, native PAGE” value (pea PBGS 1 mg/mL, various concentrations of morphlock-1, 30 minutes at 37° C.) of the same molecule?
**A.** The value was “draws the pea PBGS morpheein equilibrium entirely to the hexamer in a dose dependent fashion”.

**Q.** And the “Coomassie and activity stained native PAGE: binding to hexameric assembly” value (pea PBGS 1 mg/ml, morphlock-1 at 2 mM)?
**A.** The value was “prevents the substrate mediated conversion of hexamer to octamer”.
